Data reported in US20230190924A1, “ANTIGEN OF ALLERGY AND EPITOPE THEREOF” (HOYU CO., LTD., priority 2017, published 2023).
“Also recorded” adds a separate entry of the source.

Key:
Type in all cases: binding, human
IgE antibodies in serum = assay: ELISA of Fmoc-synthesised peptides with patient serum; details: serum of cases having food allergies to chicken egg and soybean in combination
Description: The peptides of the aforementioned SEQ ID NOs were prepared by the Fmoc method and studied for their binding activity against IgE antibodies in serum by ELISA. On the basis of RXRXXKXX (SEQ ID NO: 329), the peptides of chicken egg RGREDKMK and soybean RFREDKEE were prepared, and their binding activity against IgE antibodies were confirmed by ELISA using the serum of cases having food allergies to chicken egg and soybean in combination.

[1] = tested on: IgE antibodies from patients; assay: Epitope mapping (2) overlapping (10-amino-acid peptides) and (3) alanine scanning on peptide arrays; details: for region within the epitope important for binding to IgE antibodies from patients: procedures (B) overlapping and (C) alanine scanning
Summary of the method: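 Overlapping 10-mer peptides shifted by one residue, and alanine-substituted peptides, spotted on cellulose and probed with patient and non-egg-allergic sera; IgE binding read by anti-human IgE-HRP chemiluminescence. Signal expressed relative to parent sequence and graded in bands from <20% (no binding) to ≥90% (retained binding).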

[2] = tested on: IgE antibody in the serum of an egg allergic patient; assay: Immunoblotting of two-dimensional electrophoresis of chicken egg (raw egg) yolk proteins with patient serum; details: for specific reaction/binding of serum IgE with spot in immunoblot: serum of egg-allergic patient 1 (food-dependent exercise-induced anaphylaxis), versus non-egg-allergic serum
Description: Identification of antigens by immunoblotting was carried out by taking all the steps up to the step of “Second-dimensional SDS-PAGE” as described above in Example 1, followed by the steps of “Transfer to membrane”, “Immunoblotting” and “Analysis” as described below.
Transfer to membrane was done using the following transfer system and transfer buffer. • Transfer system: XCell SureLock Mini-Cell and XCell II Blot Module (produced by Life Technologies) • Transfer buffer: NuPAGE Transfer Buffer (X20) (produced by Life Technologies), used in a form diluted 20-fold with milliQ water.
To be specific, proteins in the two-dimensional electrophoresis gels were transferred to a membrane (PVDF membrane) according to the following procedure.
(1) The PVDF membrane was immersed in 100% methanol followed by milliQ water, and then moved into the transfer buffer to hydrophilize the PVDF membrane.
(2) After sponge, filter paper, gels treated by second-dimensional SDS-PAGE, the hydrophilized PVDF membrane, filter paper, and sponge were put in place in this order, the transfer system was energized at a constant voltage of 30 V for one hour.
Immunoblotting of the membrane was carried out using, as a primary antibody, a serum sample from patient (patient 1) with an egg allergy or a serum sample from a non-egg-allergic subject. This egg-allergic patient was a patient diagnosed with food-dependent exercise-induced anaphylaxis (FDEIA) caused by chicken eggs.
Immunoblotting of the membrane was carried out according to the following procedure. • (1) The transferred membrane was shaken in a 5% skim milk/PBST solution (a PBS buffer containing 0.1% Tween 20 nonionic surfactant) at room temperature for one hour. • (2) The membrane was left to stand in a solution of 5% primary antibody serum in 5% skim milk/PBST at room temperature for one hour. • (3) The membrane was washed with a PBST solution (5 min.×3 times). • (4) The membrane was left to stand in a 1:5000 dilution of the secondary antibody, anti-human IgE-HRP (horseradish peroxidase), with a 5% skim milk/PBST solution at room temperature for one hour. • (5) The membrane was washed with a PBST solution (5 min.×3 times). • (6) The membrane was left to stand in Pierce Western Blotting Substrate Plus (produced by Thermo) for 5 minutes. […]
The immunoblots obtained with the serum from the egg-allergic patient were compared with those obtained with the control serum from the non-egg-allergic subject. By immunoblotting of the proteins contained in the raw yolk using the serum from the egg-allergic patient (FIG. 2), three spots were detected, which are different from the spots detected when the serum of the non-egg-allergic subject was used and different from those of the known chicken egg allergen proteins.
Identification of antigens by immunoblotting was carried out using the sera of three other egg-allergic patients (patient 2, patient 3 and patient 4) in the same manner as in Example 2. By immunoblotting of the proteins contained in the raw yolk using the serum from the egg-allergic patients (FIG. 4 for patient 2, FIG. 5 for patient 3, and FIG. 6 for patient 4), spots were detected, which are different from the spots detected when the serum of the non-egg-allergic subject was used and different from those of the known chicken egg allergen proteins. To be specific, spots 4 to 8 for patient 2, spots 9 and 10 for patient 3, and spot 11 for patient 4 were detected.

[3] = overlapping peptides with flanking sequence
[4] = serum of egg-allergic patient 3

RFREDKEE was tested, and the “binding activity against IgE antibodies by ELISA” value (IgE antibodies in serum) was “patient-specific binding activity was able to be confirmed”.

In the case of RGREDKMK, the “binding activity against IgE antibodies by ELISA” value (IgE antibodies in serum) is reported as “patient-specific binding activity was able to be confirmed”.

In the case of “SEQ ID NO: 658: region in epitope 46 (MKMSFDSDS; epitope)”, the “region within the epitope important for binding to IgE antibodies from patients” value (shortened to “region within the epitope important”) [1] is reported as “important for binding”.

“SEQ ID NO: 659: region in epitope 46 (MSFDSDSASG; epitope)” was tested, and the “region within the epitope important” value [1] was “important for binding”.

With “SEQ ID NO: 660: sequence comprising a region carboxy-terminally adjacent to epitope 46 (DSDSASGET; epitope)” the “binding to IgE antibodies from patients, sequence comprising a region carboxy-terminally adjacent to the epitope” value [1, 3] was “binding to IgE antibodies from patients”.

For “SEQ ID NO: 663: region in epitope 46 (PDIMKMSFDS; epitope)”, the “region within the epitope important” value [1] was “important for binding”.

“SEQ ID NO: 664: region in epitope 46 (MSFDSDS; epitope)” was tested, and the “region within the epitope important” value [1] was “important for binding”.

For “SEQ ID NO: 665: sequence comprising a region carboxy-terminally adjacent to epitope 46 (SDSASGET; epitope)”, the “binding to IgE antibodies from patients, sequence comprising a region carboxy-terminally adjacent to the epitope” value [1, 3] was “binding to IgE antibodies from patients”.

For “SEQ ID NO: 669: region in epitope 47 (YSDVPIEKI; epitope)”, the “region within the epitope important” value [1] was “important for binding”.

With “SEQ ID NO: 672: sequence comprising a region amino-terminally adjacent to epitope 47 (MSFKPVYSDV; epitope)” the “binding to IgE antibodies from patients, sequence comprising a region amino-terminally adjacent to the epitope” value [1, 3] was “binding to IgE antibodies from patients”.

“SEQ ID NO: 674: region in epitope 47 (YSDVPIEK; epitope)” was tested, and the “region within the epitope important” value [1] was “important for binding”.

“SEQ ID NO: 676: sequence comprising a region carboxy-terminally adjacent to epitope 47 (PIEKIQVTI; epitope)” was tested, and the “binding to IgE antibodies from patients, sequence comprising a region carboxy-terminally adjacent to the epitope” value [1, 3] was “binding to IgE antibodies from patients”.

In the case of “SEQ ID NO: 680: region in epitope 47 (SFKPVY; epitope)”, the “region within the epitope important” value [1] is reported as “important for binding”.

B1: Spot 3: Central sequence of vitellogenin-1, or C-terminal portion (SEQ ID NO: 18) of lipovitellin-1 (protein)
chain: DKPFASGYLKMFGQELLFGRLDKDTLQNVLQVWYGPDEKIPSIRRLISSLQTGIGRQWTKALLLSEIRCIVPTCVGFPMETSFYYSSVTKVAGNVQAQITPSPRSDFRLTELLNSNVRLRSKMSLSMAKHMTFVIGINTNMIQAGLEAHTKVNAHVPVNVVATIQMKEKSIKAEIPPCKEETNLIIVSSKTFAVTRNIEDLAASKMTPVLLPEAVPDIMKMSFDSDSASGETDNIRDRQSVEDVSSGNSFSFGHPSSGKEPFIQSMCSNASTFGVQVCIEKKSVHAAFIRNVPLYNAIGEHALRMSFKPVYSDVPIEKIQVTIQAGDQAPTK
In the case of B1, the “specific reaction/binding of serum IgE with spot in immunoblot” value [2] is reported as “specifically reacted”.

B2: Vitellogenin-2 precursor (protein, listed as Gallus gallus)
chain: TPVLAAFLHGISNNKKTGGLQLVVYADTDSVRPRVQVFVTNLTDSSKWKLCADASVRNAHKAVAYVKWGWDCRDYKVSTELVTGRFAGHPAAQVKLEWPKVPSNVRSVVEWFYEFVPGAAFMLGFSERMDKNPSRQARMVVALTSPRTCDVVVKLPDIILYQKAVRLPLSLPVGPRIPASELQPPIWNVFAEAPSAVLENLKARCSVSYNKIKTFNEVKFNYSMPANCYHILVQDCSSELKFLVMMK
With B2 the “specific reaction of serum IgE with spot in immunoblot” value (“specific reaction of serum IgE” for short) ([2]; serum of egg-allergic patient 4) was “specifically reacted; also recorded: detected”.

B3: vitellogenin-3 (protein)
chain: SIIENLKARCSVSQNMITTFNGVEFNYSMPANCYHILAQDCSPELKFLVMMKRLGESADLTAISVRLASHEVDMYVSNGLIQLKINGVQTPTDVPYTSKSGLLISSEKEGLSLKAPEYGVEKLYYDRRKLEIRVAFWMVGKTCGICGKYDAEKKREYQMPSGYLAKDAVSFAQSWVISEDTCTGACKLQRKFVKIEKPVAFNKKASKCFSIEPVLRCAEGCSATRTVPVSVGFHCVPSDSTLELEEEQVRLDQKSEDLVSRVDAHTACSCAQQLCSA
In the case of B3, the “specific reaction/binding of serum IgE with spot in immunoblot” value [2] is reported as “specifically reacted”.

B4: Apolipoprotein B precursor [Spot 9] (protein, listed as Gallus gallus)
chain: MGPVRLLLLLLLLSSGVLTQEGTPENGNPGCSKDAARFKSLRKYVYLYEAETSSGITGTADSRSGSKITCKVELEVPQLCQFILRTMHCSLRETFGVDSERRAMLRKSKNSDDFANAMSKHELRFSTQDGTKVKLYPEKDEPLNVLNLKRGIISALLAPTETEENIKTISMDTVYGKCDSEVEFKSRRGSVAEDISINRNLKACDNFSPIRDYVSPVAIVKGLNIPLSTLLSSTQSCHYSIDAKKKHIRDVVCSEKHLFLPSSYKNQYGMMTEVNQTLKLEDNQRMNNRNPDGDELEEKGLALESTDAK
B4 was tested, and the “specific reaction of serum IgE” value [2, 4] was “specifically reacted; also recorded: detected”.

B5: Apolipoprotein B precursor [Spot 10] (protein, listed as Gallus gallus)
chain: LDGSTSLTRKRGLKLATALSLNNNKFLGGSHDNSISLTKKNLEASMITNAKINTPVFKMNFSQELSGNTKSKPTISSGLKVTYDFTTPKHGISAKGGVAHKLALETLTSYLSVETSTKGNIDGAIYTGNSFSGALDHEANTYLHANGVRSSLKLEANSKVDGLWNSEMKEILAVEASTSRVYAVWEHNGKNFARYTPLFTTTGSQKCKATFELAPWTVSADLQIQVTQPNSFLDTASVNQVVLMKVSPTDQKVGWKGEGQIQSLSLRHDMQLSNEKSNAKFDISGSLEGYMDFLKRINCAISKKSLWDILKLDVTTVADRKHYLNASASFIYRKSDDGYFFPMPVIR
With B5 the “specific reaction of serum IgE” value [2, 4] was “specifically reacted; also recorded: detected”.
